In the supplement of paper PMC10307832:

Columns and labels:
Experiment in all cases: relative viability (nuclei count vs DMSO), 5 days (fraction); higher = more cells survive
HCC-78 = system: HCC-78
Outline: (§1)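 Dosing by pin tool came one day after lung cancer cell lines were seeded in 1536-well plates, using either one drug or a fixed anchor-drug dose plus five library-drug doses (not always all listed) in √10 steps. After 5 days, nuclei were counted on 4× images. Relative viability is treated-well nuclei count divided by vehicle-well nuclei count, and values are medians of duplicate plates.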

COR-L23 = system: COR-L23
Outline: as §1

NCI-H1915 = system: NCI-H1915
Outline: as §1

NCI-H358 = system: NCI-H358
Outline: as §1

SW 1573 = system: SW 1573
Outline: as §1

NCI-H2347 = system: NCI-H2347
Outline: as §1

NCI-H2342 = system: NCI-H2342
Outline: as §1

NCI-H2126 = system: NCI-H2126
Outline: as §1

NCI-H2085 = system: NCI-H2085
Outline: as §1

UMC-11 = system: UMC-11
Outline: as §1

NCI-H1651 = system: NCI-H1651
Outline: as §1

LU99A = system: LU99A
Outline: as §1

For `O=C(O)c1ccc(-c2c[nH]c3ncc(-c4ccccc4)cc23)cc1C1CCCC1` + CC(=O)c1c(C)c2cnc(Nc3ccc(N4CCNCC4)cn3)nc2n(C2CCCC2)c1=O [Palbociclib] (partner 0.5 µM), the relative viability (HCC-78; first compound 0.4 µM) was 0.488, the relative viability (HCC-78; first compound 1.265 µM) was 0.435 and the relative viability (COR-L23; first compound 0.04 µM) was 0.296. It also gave a relative viability (COR-L23; first compound 0.1265 µM) of 0.326, a relative viability (COR-L23; first compound 0.4 µM) of 0.308 and a relative viability (COR-L23; first compound 1.265 µM) of 0.205. The relative viability (NCI-H1915; first compound 0.04 µM) was 0.553, the relative viability (NCI-H1915; first compound 0.1265 µM) was 0.527 and the relative viability (NCI-H1915; first compound 0.4 µM) was 0.452. For the same molecule, the relative viability (NCI-H1915; first compound 1.265 µM) was 0.428, the relative viability (NCI-H358; first compound 0.04 µM) was 0.128 and the relative viability (NCI-H358; first compound 0.1265 µM) was 0.12. For the same molecule, the relative viability (NCI-H358; first compound 0.4 µM) was 0.124, the relative viability (NCI-H358; first compound 1.265 µM) was 0.0876 and the relative viability (SW 1573; first compound 0.04 µM) was 0.442. It also gave a relative viability (SW 1573; first compound 0.1265 µM) of 0.355, a relative viability (SW 1573; first compound 0.4 µM) of 0.309 and a relative viability (SW 1573; first compound 1.265 µM) of 0.268. The relative viability (NCI-H2347; first compound 0.04 µM) was 0.453, the relative viability (NCI-H2347; first compound 0.1265 µM) was 0.446 and the relative viability (NCI-H2347; first compound 0.4 µM) was 0.386. The relative viability (NCI-H2347; first compound 1.265 µM) was 0.438, the relative viability (NCI-H2342; first compound 0.04 µM) was 0.465 and the relative viability (NCI-H2342; first compound 0.1265 µM) was 0.568. The relative viability (NCI-H2342; first compound 0.4 µM) was 0.479, the relative viability (NCI-H2342; first compound 1.265 µM) was 0.517 and the relative viability (NCI-H2126; first compound 0.04 µM) was 0.361. For the same molecule, the relative viability (NCI-H2126; first compound 0.1265 µM) was 0.358, the relative viability (NCI-H2126; first compound 0.4 µM) was 0.369 and the relative viability (NCI-H2126; first compound 1.265 µM) was 0.345. It also gave a relative viability (NCI-H2085; first compound 0.04 µM) of 0.448, a relative viability (NCI-H2085; first compound 0.1265 µM) of 0.476 and a relative viability (NCI-H2085; first compound 0.4 µM) of 0.457. For the same molecule, the relative viability (NCI-H2085; first compound 1.265 µM) was 0.349, the relative viability (UMC-11; first compound 0.04 µM) was 0.286 and the relative viability (UMC-11; first compound 0.1265 µM) was 0.312. For the same molecule, the relative viability (UMC-11; first compound 0.4 µM) was 0.333, the relative viability (UMC-11; first compound 1.265 µM) was 0.332 and the relative viability (NCI-H1651; first compound 0.04 µM) was 0.534. The relative viability (NCI-H1651; first compound 0.1265 µM) was 0.524, the relative viability (NCI-H1651; first compound 0.4 µM) was 0.514 and the relative viability (NCI-H1651; first compound 1.265 µM) was 0.475. It also gave a relative viability (LU99A; first compound 0.04 µM) of 0.43, a relative viability (LU99A; first compound 0.1265 µM) of 0.439 and a relative viability (LU99A; first compound 0.4 µM) of 0.375. The relative viability (LU99A; first compound 1.265 µM) was 0.344.
